Measured values taken from US8642774B2, “Compounds” (Boehringer Ingelheim International GmbH, priority 2011, dated 2014).

Target: T1, human recombinant mGluR5 (Homo sapiens, UniProt P41594)
T1 construct: expressed in transfected cells; host or cells: HEK 293 cell line, cultured with tetracycline, hygromycin and geneticin; tetracycline is withdrawn 3-7 days before the assay
Experiment: positive modulation of mGluR5, calcium based FLIPR assay
Format: cell-based
Settings: EC50 of the modulation; HEK 293 cell line expressing human recombinant mGluR5; peak height of Ca fluorescence signal after glutamate at approx. 5% basal stimulation; read-out: EC50
Outline: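 HEK 293 cells expressing human recombinant mGluR5, tetracycline-free before assay, loaded with Calcium-4 dye in Ringer solution pH 7.4. Compounds (1% DMSO final) added for 5 min, then glutamate at about 5% of maximal effect; FLIPR peak Ca signal scaled between 1% DMSO (100%) and 10 μM CDPPB (200%) controls, EC50 by nonlinear regression.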

T1 sequence (P41594 21-1212): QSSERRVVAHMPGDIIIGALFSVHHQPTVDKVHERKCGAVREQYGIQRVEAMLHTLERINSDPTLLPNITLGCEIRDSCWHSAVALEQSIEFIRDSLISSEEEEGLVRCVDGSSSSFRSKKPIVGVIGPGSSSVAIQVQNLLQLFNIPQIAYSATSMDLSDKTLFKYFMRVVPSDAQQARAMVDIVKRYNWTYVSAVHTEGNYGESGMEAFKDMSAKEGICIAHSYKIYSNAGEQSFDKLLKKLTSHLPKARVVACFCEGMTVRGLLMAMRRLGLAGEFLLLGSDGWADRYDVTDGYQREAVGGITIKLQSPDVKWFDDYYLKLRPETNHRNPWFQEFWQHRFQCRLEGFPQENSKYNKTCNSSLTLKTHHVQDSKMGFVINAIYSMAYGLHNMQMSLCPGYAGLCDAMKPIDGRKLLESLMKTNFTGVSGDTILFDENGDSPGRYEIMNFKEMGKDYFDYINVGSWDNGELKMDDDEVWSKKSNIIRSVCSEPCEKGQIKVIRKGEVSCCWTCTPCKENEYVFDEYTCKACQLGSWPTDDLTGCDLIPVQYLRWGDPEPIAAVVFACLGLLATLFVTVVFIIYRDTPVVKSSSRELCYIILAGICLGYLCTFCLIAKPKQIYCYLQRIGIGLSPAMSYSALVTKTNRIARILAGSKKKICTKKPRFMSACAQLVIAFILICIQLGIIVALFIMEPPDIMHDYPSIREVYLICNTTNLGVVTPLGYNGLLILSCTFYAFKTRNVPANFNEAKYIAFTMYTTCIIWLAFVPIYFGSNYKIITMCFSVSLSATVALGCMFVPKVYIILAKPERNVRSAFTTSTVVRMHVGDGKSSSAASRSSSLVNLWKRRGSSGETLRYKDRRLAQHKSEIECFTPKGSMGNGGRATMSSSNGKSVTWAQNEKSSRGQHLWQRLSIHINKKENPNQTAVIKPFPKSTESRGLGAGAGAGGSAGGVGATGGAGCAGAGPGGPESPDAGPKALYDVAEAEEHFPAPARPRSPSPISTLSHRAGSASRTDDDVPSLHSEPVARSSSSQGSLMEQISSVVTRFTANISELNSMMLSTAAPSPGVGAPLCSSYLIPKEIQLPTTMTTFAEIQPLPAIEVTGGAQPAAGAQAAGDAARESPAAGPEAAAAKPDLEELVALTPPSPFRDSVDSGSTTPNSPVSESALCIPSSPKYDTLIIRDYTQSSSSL

EC50 [nM] | SMILES
889 | Cc1nc2c(s1)CCN(C(=O)Cn1nc(-c3ccc(F)cc3)nc1-c1ccc(F)cn1)CC2 [Example 7.03.117.]
211 | CC1CN(C(=O)Cn2nc(-c3ccc(F)cc3)nc2-c2ccc(F)cc2)CCN1c1ncccn1 (stereo not drawn) [Example 7.03.118.]
329 | CC1CN(c2ncccn2)CCN1C(=O)Cn1nc(-c2ccc(F)cc2)nc1-c1ccc(F)cc1 (stereo not drawn) [Example 7.03.119.]
259 | Cc1nc2c(s1)CC(C)N(C(=O)Cn1nc(-c3ccc(F)cc3)nc1-c1ccc(F)cc1)CC2 (stereo not drawn) [Example 7.03.121.]
57 | Cc1nc2c(o1)CCN(C(=O)Cn1nc(-c3ccc(F)cc3)nc1-c1ccc(F)cc1)CC2 [Example 7.03.122.]
31 | Cc1nc2c(o1)CN(C(=O)Cn1nc(-c3ccc(F)c(C)c3)nc1-c1ccccc1)C2 [Example 7.03.123]
61 | Cc1nc2c(o1)CN(C(=O)Cn1nc(-c3ccc(F)cc3)nc1-c1ccc(F)cc1)C2 [Example 7.03.124]
152 | CCCCCc1nc(-c2ccc(F)c(C)c2)nn1CC(=O)N1Cc2nc(C)oc2C1 [Example 7.03.125]
201 | CCc1nc(-c2ccc(OC(F)F)cc2)nn1CC(=O)N1CCc2nc(C)sc2CC1 [Example 7.03.126]
40 | Cc1nc2c(s1)CCN(C(=O)Cn1nc(-c3ccc(OC(F)F)cc3)nc1-c1ccccc1)CC2 [Example 7.03.127]
85 | Cc1nc2c(s1)CN(C(=O)Cn1nc(-c3ccc(OC(F)F)cc3)nc1-c1ccccc1)C2 [Example 7.03.128]
27 | Cc1nc2c(o1)CN(C(=O)Cn1nc(-c3ccc(OC(F)F)cc3)nc1-c1ccccc1)C2 [Example 7.03.129]
481 | CCCc1nc(-c2ccc(OC(F)F)cc2)nn1CC(=O)N1CCN(c2noc(C)n2)CC1 [Example 7.03.130]
316 | CCCc1nc(-c2ccc(OC(F)F)cc2)nn1CC(=O)N1CCc2nc(C)sc2CC1 [Example 7.03.131]
95 | COc1ccc(-c2nc(-c3ccccc3)n(CC(=O)N3Cc4nc(C)oc4C3)n2)cc1 [Example 7.03.132]
104 | COc1ccc(-c2nc(-c3ccc(OC)cc3)n(CC(=O)N3Cc4nc(C)oc4C3)n2)cc1 [Example 7.03.133]
129 | Cc1nnc(N2CCN(C(=O)Cn3nc(-c4ccc(OC(F)F)cc4)nc3-c3ccccc3)CC2)o1 [Example 7.03.134]
19 | Cc1nc(N2CCN(C(=O)Cn3nc(-c4ccc(OC(F)F)cc4)nc3-c3ccccc3)CC2)no1 [Example 7.03.135]
498 | O=C(Cn1nc(-c2ccc(F)cc2)nc1-c1ccc(F)cc1)N1CCN(c2nccc3sccc23)CC1 [Example 07.03.136.]
339 | O=C(Cn1nc(-c2ccc(F)cc2)nc1-c1ccc(F)cc1)N1CCN(c2nccc3occc23)CC1 [Example 07.03.137.]
678 | O=C(Cn1nc(-c2ccc(F)cc2)nc1-c1ccc(F)cc1)N1CCc2nc(N3CCCC3)sc2CC1 [Example 7.04.01., 2-[3,5-bis-(4-Fluoro-phenyl)-(1,2,4)triazol-1-yl)-1-(2-pyrrolidin-1-yl-4,5,7,8-tetrahydro-thiazolo[4,5-d]azepin-6-yl)-ethanone]
132 | CNc1nc2c(s1)CCN(C(=O)Cn1nc(-c3ccc(F)cc3)nc1-c1ccc(F)cc1)CC2 [Example 7.04.02.]
346 | CN(C)c1nc2c(s1)CCN(C(=O)Cn1nc(-c3ccc(F)cc3)nc1-c1ccc(F)cc1)CC2 [Example 7.04.03.]
561 | O=C(Cn1nc(-c2ccc(F)cc2)nc1-c1ccc(F)cc1)N1CCc2nc(N3CCCCC3)sc2CC1 [Example 7.04.04.]
1660 | O=C(Cn1nc(-c2ccc(F)cc2)nc1-c1ccc(F)cc1)N1CCc2nc(N3CCOCC3)sc2CC1 [Example 7.04.05.]
1710 | O=C(Cn1nc(-c2ccc(F)cc2)nc1-c1ccc(F)cc1)N1CCN(C2=NCCCS2)CC1 [Example 7.05.01., 2-(3,5-bis-(4-Fluoro-phenyl)-(1,2,4)triazol-1-yl]-1-[4-(5,6-dihydro-4H-(1,3)thiazin-2-yl)-piperazin-1-yl]-ethanone]
1130 | O=C(Cn1nc(-c2ccc(F)cc2)nc1-c1ccc(F)cc1)N1CCc2ncsc2CC1 [Example 7.06.01., 2-(3,5-bis-(4-Fluoro-phenyl)-(1,2,4)triazol-1-yl]-1-(4,5,7,8-tetrahydro-thiazolo[4,5-d]azepin-6-yl)-ethanone]
